In US4468511A, “C-20- And C-23-Modified macrolide derivatives” (Eli Lilly and Company, priority 1983, dated 1984):
≈ marks a conversion by molar mass, not a printed value. Read-outs that look alike come from different tables or passages of the source.

Legend:
[1] = system: Pasteurella multocida; assay: Pasteurella infection in one-day old chicks; type: in vivo; conditions: subcutaneous, 30 mg/kg × 2, 1 and 4 hours post-challenge
Procedure: Certain of the formula 1 compounds of this invention have also shown in vivo activity against infections induced by gram-negative bacteria. Table V summarizes the results of tests in which illustrative compounds were evaluated against a Pasteurella infection in one-day old chicks. The compounds were administered parenterally after challenge of the chicks with Pasteurella multocida (0.1 ml of a 10^-4 dilution of a twenty-hour tryptose broth culture of an avian P. multocida given subcutaneously). In these tests, unless indicated otherwise, all non-medicated infected chicks died within 24 hours of Pasteurella challenge. In the tests summarized in Table V, the compounds were administered by subcutaneous injection at a dosage of 30 mg/kg, 1 and 4 hours post-challenge of the chicks with P. multocida.

[2] = system: Mycoplasma gallisepticum 41313; assay: MIC, conventional broth-dilution microtiter test; type: cell-based; conditions: Mycoplasmoides gallisepticum
Outline: (§1)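 MICs for the two Pasteurella strains and the Mycoplasma strain were read from a broth-dilution microtiter test. The Klebsiella strain was tested on agar instead.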

[3] = system: Staphylococcus aureus; assay: MIC, conventional broth-dilution microtiter test; type: cell-based
Procedure: (§2) Certain of the derivatives are active against some gram-negative bacteria, such as Pasteurella species. The MIC's in Table II were determined by standard agar-dilution assays. The MIC's in Table III were obtained using a conventional broth-dilution microtiter test.

[4] = system: Mycoplasma synoviae; assay: MIC, conventional broth-dilution microtiter test; type: cell-based; conditions: Mycoplasmopsis synoviae
Outline: (§3)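 Two formats were used. Broth dilution in microtiter plates served for Pasteurella and Mycoplasma, while agar dilution served for Klebsiella.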

[5] = system: Pasteurella multocida 60A; assay: MIC, conventional broth-dilution microtiter test; type: cell-based; conditions: Pasteurella multocida, 60A
Outline: as §1

[6] = system: Pasteurella hemolytica 22C; assay: MIC, conventional broth-dilution microtiter test; type: cell-based
Outline: as §1

[7] = system: Pasteurella multocida 22A; assay: MIC, conventional broth-dilution microtiter test; type: cell-based; conditions: Pasteurella multocida, 22A
Outline: as §1

[8] = system: Mycoplasma hyorhinis; assay: MIC, conventional broth-dilution microtiter test; type: cell-based; conditions: Mycoplasma
Outline: as §3

[9] = system: Mycoplasma gallisepticum; assay: MIC, conventional broth-dilution microtiter test; type: cell-based; conditions: Mycoplasmoides gallisepticum
Outline: as §1

[10] = system: Pasteurella hemolytica 41D; assay: MIC, conventional broth-dilution microtiter test; type: cell-based
Outline: as §1

[11] = system: Mycoplasma gallisepticum 34159; assay: MIC, conventional broth-dilution microtiter test; type: cell-based; conditions: Mycoplasmoides gallisepticum
Outline: as §1

[12] = system: Streptococcus sp. 80; assay: MIC, conventional broth-dilution microtiter test; type: cell-based; conditions: Streptococcus, SP.80
Procedure: as §2

[13] = system: Pasteurella hemolytica 23C; assay: MIC, conventional broth-dilution microtiter test; type: cell-based
Outline: as §1

[14] = system: Pasteurella multocida 40G; assay: MIC, conventional broth-dilution microtiter test; type: cell-based; conditions: Pasteurella multocida, 40G
Outline: as §1

[15] = system: Pasteurella multocida 17E; assay: MIC, conventional broth-dilution microtiter test; type: cell-based; conditions: Pasteurella multocida, 17E
Outline: as §1

[16] = system: Pasteurella multocida 68C; assay: MIC, conventional broth-dilution microtiter test; type: cell-based; conditions: Pasteurella multocida, 68C
Outline: as §1

[17] = system: Staphylococcus epidermidis EPI2; assay: MIC, standard agar-dilution assay; type: cell-based; conditions: Staphylococcus epidermidis, EPI2
Procedure: (§4) The MIC's in Table II were determined by standard agar-dilution assays. The MIC's in Table III were obtained using a conventional broth-dilution microtiter test.

[18] = system: Staphylococcus aureus X400; assay: MIC, standard agar-dilution assay; type: cell-based; conditions: Staphylococcus aureus, X400
Procedure: as §4

[19] = system: Staphylococcus aureus S13E; assay: microbe, parasite or virus in culture; type: cell-based
Procedure: as §4

[20] = system: Staphylococcus epidermidis EPI1; assay: microbe, parasite or virus in culture; type: cell-based; conditions: Staphylococcus epidermidis, EPI1
Procedure: as §4

[21] = system: Klebsiella pneumoniae X26; assay: MIC, standard agar-dilution assay; type: cell-based; conditions: Klebsiella pneumoniae, X26
Outline: as §3

[22] = system: Streptococcus pyogenes 9960; assay: MIC, standard agar-dilution assay; type: cell-based; conditions: 9960
Procedure: as §2

[23] = system: Streptococcus pneumoniae Park I; assay: MIC, standard agar-dilution assay; type: cell-based; conditions: Streptococcus pneumoniae
Procedure: as §2

[24] = system: Streptococcus Group D X66; assay: MIC, standard agar-dilution assay; type: cell-based
Procedure: as §2

[25] = system: Staphylococcus aureus X1.1; assay: MIC, standard agar-dilution assay; type: cell-based; conditions: Staphylococcus aureus, X1.1
Outline: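 A standard agar-dilution assay was used to test compounds against the Staphylococcus aureus isolate X1.1. Bacterial growth on agar with different compound concentrations was assessed, and the minimum inhibitory concentration was recorded in ug/mL.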

[26] = system: Escherichia coli EC14; assay: MIC, standard agar-dilution assay; type: cell-based
Procedure: as §2

[27] = system: Staphylococcus aureus V41; assay: MIC, standard agar-dilution assay; type: cell-based; conditions: Staphylococcus aureus, V41
Procedure: as §2

[28] = system: Klebsiella pneumoniae KAE; assay: MIC, standard agar-dilution assay; type: cell-based
Outline: as §1

[29] = system: Escherichia coli TEM; assay: MIC, standard agar-dilution assay; type: cell-based
Outline: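 Antibacterial activity toward the gram-negative organism Escherichia coli was assessed by conventional agar dilution. The MIC, reported in ug/mL, is the minimum compound concentration on agar that prevents growth.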

[30] = system: Streptococcus pyogenes C203; assay: MIC, standard agar-dilution assay; type: cell-based; conditions: Streptococcus pyogenes, C203
Procedure: as §2

[31] = system: Streptococcus pyogenes C203; assay: Protection of mice experimentally infected with S. pyogenes C203; type: in vivo
Procedure: Some of the derivatives of this invention have shown in vivo antimicrobial activity against experimentally-induced infections in laboratory animals. When two doses of test compound were administered to mice experimentally infected with S. pyogenes C203, the activity observed was measured as an ED50 value [effective dose in mg/kg to protect 50% of the test animals: see Warren Wick, et al., J. Bacteriol. 81, 233-235 (1961)].

[32] = system: Haemophilus influenzae C.L.; assay: MIC, standard agar-dilution assay; type: cell-based; conditions: Haemophilus influenzae
Procedure: as §4

[33] = system: Haemophilus influenzae 76; assay: MIC, standard agar-dilution assay; type: cell-based; conditions: agar-dilution; Haemophilus influenzae 76, Ampicillin-resistant strain; read-out: MIC
Procedure: as §4

Row | SMILES | MIC [3] | MIC [4] | MIC [5] | MIC [7] | MIC [8] | MIC [9] | MIC [12] | MIC [14] | MIC [15] | MIC [16] | MIC [17] | MIC [18] | MIC [19] | MIC [20] | MIC [21] | MIC [22] | MIC [23] | MIC [24] | MIC [25] | MIC [27] | further results
1 | CCC1OC(=O)CC(O)C(C)C(OC2OC(C)C(O)C(N(C)C)C2O)C(CCOC(=O)Cc2ccccc2)CC(C)C(=O)C=CC(C)=CC1COC(=O)Cc1ccccc1 (centres unmarked) [Compound 30, 20,23-Di-O-Phenylacetyl-20-dihydro-OMT] | 1.56 µg/mL (≈ 1.87 µM) | 6.25 µg/mL (≈ 7.48 µM) | 6.25 µg/mL (≈ 7.48 µM) | 6.25 µg/mL (≈ 7.48 µM) | 50 µg/mL (≈ 59.8 µM) | 0.78 µg/mL (≈ 0.933 µM) | 0.39 µg/mL (≈ 0.466 µM) | 6.25 µg/mL (≈ 7.48 µM) | 12.5 µg/mL (≈ 15 µM) | 6.25 µg/mL (≈ 7.48 µM) | 0.5 µg/mL (≈ 0.598 µM) | 0.5 µg/mL (≈ 0.598 µM) | 0.25 µg/mL (≈ 0.299 µM) | 0.25 µg/mL (≈ 0.299 µM) | 8 µg/mL (≈ 9.57 µM) | 0.5 µg/mL (≈ 0.598 µM) | 0.12 µg/mL (≈ 0.144 µM) | 0.5 µg/mL (≈ 0.598 µM) | 0.25 µg/mL (≈ 0.299 µM) | 0.25 µg/mL (≈ 0.299 µM) | Number of Deaths/Number Treated [1]: 9/10; MIC [2]; 41313: 50 µg/mL (≈ 59.8 µM); MIC ([6]; Pasteurella, 22C): 6.25 µg/mL (≈ 7.48 µM); MIC ([10]; Pasteurella, 41D): 6.25 µg/mL (≈ 7.48 µM); MIC [11]; 34159: 12.5 µg/mL (≈ 15 µM); MIC ([13]; Pasteurella, 23C): 6.25 µg/mL (≈ 7.48 µM); MIC ([26]; Escherichia coli, EC14): > 128 µg/mL; MIC ([28]; Klebsiella pneumoniae): > 128 µg/mL; MIC ([29]; Escherichia coli): 8 µg/mL (≈ 9.57 µM); MIC [30]: 0.25 µg/mL (≈ 0.299 µM); ED50 ([31]; C203, po, read-out: ED50 Oral): > 100 mg/kg; ED50 ([31]; C203, sc, read-out: ED50 Subcutaneous): > 30 mg/kg
2 | CCC1OC(=O)CC(O)C(C)C(OC2OC(C)C(O)C(N(C)C)C2O)C(CCOc2ccccc2)CC(C)C(=O)C=CC(C)=CC1COC(=O)CCc1ccccc1 (centres unmarked) [Compound 33, 20-O-Phenyl-20-dihydro-23-O-phenylpropionyl-OMT] | 0.78 µg/mL (≈ 0.965 µM) | 6.25 µg/mL (≈ 7.73 µM) | 3.12 µg/mL (≈ 3.86 µM) | 3.12 µg/mL (≈ 3.86 µM) | 50 µg/mL (≈ 61.9 µM) | 0.78 µg/mL (≈ 0.965 µM) | 0.097 µg/mL (≈ 0.12 µM) | 3.12 µg/mL (≈ 3.86 µM) | 3.12 µg/mL (≈ 3.86 µM) | 3.12 µg/mL (≈ 3.86 µM) | 1 µg/mL (≈ 1.24 µM) | 2 µg/mL (≈ 2.48 µM) | 1 µg/mL (≈ 1.24 µM) | 1 µg/mL (≈ 1.24 µM) | 32 µg/mL (≈ 39.6 µM) | 2 µg/mL (≈ 2.48 µM) | 0.5 µg/mL (≈ 0.619 µM) | 1 µg/mL (≈ 1.24 µM) | 1 µg/mL (≈ 1.24 µM) | 1 µg/mL (≈ 1.24 µM) | MIC ([2]; broth-dilution microtiter, Mycoplasma gallisepticum 41313, Resistant strain, read-out: MIC): 25 µg/mL (≈ 30.9 µM); MIC ([6]; broth-dilution microtiter, Pasteurella hemolytica 22C, read-out: MIC): 25 µg/mL (≈ 30.9 µM); MIC ([10]; broth-dilution microtiter, Pasteurella hemolytica 41D, read-out: MIC): 25 µg/mL (≈ 30.9 µM); MIC ([11]; broth-dilution microtiter, Mycoplasma gallisepticum 34159, Resistant strain, read-out: MIC): 12.5 µg/mL (≈ 15.5 µM); MIC ([13]; broth-dilution microtiter, Pasteurella hemolytica 23C, read-out: MIC): 25 µg/mL (≈ 30.9 µM); MIC [32]: 128 µg/mL (≈ 158 µM); MIC [33]: > 128 µg/mL; MIC ([26]; agar-dilution, Escherichia coli EC14, read-out: MIC): > 128 µg/mL; MIC ([28]; agar-dilution, Klebsiella pneumoniae KAE, read-out: MIC): > 128 µg/mL; MIC ([29]; agar-dilution, Escherichia coli TEM, read-out: MIC): > 128 µg/mL; MIC [30]: 2 µg/mL (≈ 2.48 µM); ED50 ([31]; C203, mice, oral, mg/kg × 2, doses given 1 and 4 hours postinfection, read-out: ED50 Oral): > 50 mg/kg; ED50 ([31]; C203, sc, mice, subcutaneous, mg/kg × 2, doses given 1 and 4 hours postinfection, read-out: ED50 Subcutaneous): > 10 mg/kg
